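Grown in 96-well plates, cells were treated for 48 hours with each compound at five concentrations. Insufficient inhibition: endpoint recorded as highest concentration tested. Here, GI50 denotes the concentration required for 50% inhibition of growth.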 Calls of active or inactive are those of the source. Rule as the data show it: active = GI50 up to about 1.1 µM and inactive = higher.
Key:
Assay in all cases: growth of human tumour cells (NCI), 48 h
786-0 = system: 786-0
CCRF-CEM = system: CCRF-CEM
COLO 205 = system: COLO 205
EKVX = system: EKVX
HCC 2998 = system: HCC 2998
HOP-62 = system: HOP-62
HT-29 = system: HT-29
KM12 = system: KM12
MCF7 = system: MCF7
MDA-MB-435 = system: MDA-MB-435
NCI-H226 = system: NCI-H226
NCI-H460 = system: NCI-H460
NCI-H522 = system: NCI-H522
OVCAR-4 = system: OVCAR-4
OVCAR-8 = system: OVCAR-8
SF-268 = system: SF-268
SK-MEL-2 = system: SK-MEL-2
SK-MEL-5 = system: SK-MEL-5
SN12C = system: SN12C
SW-620 = system: SW-620

SMILES	GI50 (786-0)	GI50 (CCRF-CEM)	GI50 (COLO 205)	GI50 (EKVX)	GI50 (HCC 2998)	GI50 (HOP-62)	GI50 (HT-29)	GI50 (KM12)	GI50 (MCF7)	GI50 (MDA-MB-435)	GI50 (NCI-H226)	GI50 (NCI-H460)	GI50 (NCI-H522)	GI50 (OVCAR-4)	GI50 (OVCAR-8)	GI50 (SF-268)	GI50 (SK-MEL-2)	GI50 (SK-MEL-5)	GI50 (SN12C)	GI50 (SW-620)
O=C(O)CCC(=O)Nc1ccc2ccccc2c1	> 100 µM (inactive)	> 100 µM (inactive)	> 100 µM (inactive)	> 100 µM (inactive)	> 100 µM (inactive)	> 100 µM (inactive)	> 100 µM (inactive)	> 100 µM (inactive)	> 100 µM (inactive)	> 100 µM (inactive)	> 100 µM (inactive)	> 100 µM (inactive)	> 100 µM (inactive)	> 100 µM (inactive)	> 100 µM (inactive)	> 100 µM (inactive)	> 100 µM (inactive)	> 100 µM (inactive)	> 100 µM (inactive)	> 100 µM (inactive)
COc1cc(OC)c(/C=C/c2cnc3ccccc3n2)c(OC)c1	> 10 µM (inactive)	> 10 µM (inactive)	> 10 µM (inactive)	> 10 µM (inactive)	> 10 µM (inactive)	> 10 µM (inactive)	> 10 µM (inactive)	> 10 µM (inactive)	> 10 µM (inactive)	> 10 µM (inactive)	> 10 µM (inactive)	> 10 µM (inactive)	> 10 µM (inactive)	> 10 µM (inactive)	> 10 µM (inactive)	> 10 µM (inactive)	> 10 µM (inactive)	> 10 µM (inactive)	> 10 µM (inactive)	> 10 µM (inactive)
CC(CSC(=N)N)C(N)=O (centres undefined)	> 100 µM (inactive)	> 100 µM (inactive)	> 100 µM (inactive)	> 100 µM (inactive)	> 100 µM (inactive)	> 100 µM (inactive)	> 100 µM (inactive)	> 100 µM (inactive)	> 100 µM (inactive)	> 100 µM (inactive)	> 100 µM (inactive)	> 100 µM (inactive)	> 100 µM (inactive)	> 100 µM (inactive)	> 100 µM (inactive)	> 100 µM (inactive)	> 100 µM (inactive)	> 100 µM (inactive)	> 100 µM (inactive)	> 100 µM (inactive)
CCOP(=O)(OCC)C(c1ccc(F)cc1)N(C(=O)NC(F)(F)F)c1cccc(C(F)(F)F)c1 (centres undefined)	> 10 µM (inactive)	> 100 µM (inactive)	> 100 µM (inactive)	> 100 µM (inactive)	> 100 µM (inactive)	> 100 µM (inactive)	86.9 µM (inactive)	> 100 µM (inactive)	> 100 µM (inactive)	> 100 µM (inactive)	> 100 µM (inactive)	91.4 µM (inactive)	67.8 µM (inactive)	96.4 µM (inactive)	> 100 µM (inactive)	> 100 µM (inactive)	> 100 µM (inactive)	> 100 µM (inactive)	> 100 µM (inactive)	> 100 µM (inactive)
COc1cc(C2C3=C(COC3=O)Oc3cc4c(cc32)OCO4)ccc1OC(C)=O (centres undefined)	0.521 µM (active)	0.35 µM (active)	0.224 µM (active)	1.21 µM (inactive)	1.01 µM (active)	1.73 µM (inactive)	0.346 µM (active)	0.255 µM (active)	0.29 µM (active)	0.0263 µM (active)	5.14 µM (inactive)	0.45 µM (active)	0.0948 µM (active)	1.41 µM (inactive)	0.752 µM (active)	1.09 µM (active)	0.684 µM (active)	0.106 µM (active)	2.19 µM (inactive)	0.284 µM (active)
[N-]=[N+]=CC(=O)OC1Cc2ccccc2C1	> 81.7 µM (inactive)	> 31.6 µM (inactive)	> 72.6 µM (inactive)	> 100 µM (inactive)	> 100 µM (inactive)	> 66.8 µM (inactive)	> 100 µM (inactive)	> 100 µM (inactive)	> 100 µM (inactive)	> 100 µM (inactive)	> 93.3 µM (inactive)	> 100 µM (inactive)	> 71 µM (inactive)	> 100 µM (inactive)	> 100 µM (inactive)	> 100 µM (inactive)	> 100 µM (inactive)	> 56.6 µM (inactive)	> 39.4 µM (inactive)	> 100 µM (inactive)
N#Cc1nnn(C2CCCCC2)c1O	> 100 µM (inactive)	> 100 µM (inactive)	> 100 µM (inactive)	> 100 µM (inactive)	> 100 µM (inactive)	> 100 µM (inactive)	> 100 µM (inactive)	> 100 µM (inactive)	> 100 µM (inactive)	> 100 µM (inactive)	> 100 µM (inactive)	> 100 µM (inactive)	> 100 µM (inactive)	> 100 µM (inactive)	> 100 µM (inactive)	> 100 µM (inactive)	> 100 µM (inactive)	> 100 µM (inactive)	> 100 µM (inactive)	> 100 µM (inactive)
NC(=O)C(=O)C(c1ccccc1)S(=O)(=O)Cc1ccccc1 (centres undefined)	> 100 µM (inactive)	> 100 µM (inactive)	> 100 µM (inactive)	> 100 µM (inactive)	> 100 µM (inactive)	> 100 µM (inactive)	> 100 µM (inactive)	> 100 µM (inactive)	> 100 µM (inactive)	> 100 µM (inactive)	> 100 µM (inactive)	> 100 µM (inactive)	> 100 µM (inactive)	> 100 µM (inactive)	> 100 µM (inactive)	> 100 µM (inactive)	> 100 µM (inactive)	> 100 µM (inactive)	> 100 µM (inactive)	> 100 µM (inactive)
CC(=O)C1C(=O)C(C(C)=O)C2C3C=CC(C3)C12 (centres undefined)	> 100 µM (inactive)	> 100 µM (inactive)	> 100 µM (inactive)		> 100 µM (inactive)	> 100 µM (inactive)	> 100 µM (inactive)	> 100 µM (inactive)	> 100 µM (inactive)	> 100 µM (inactive)	> 100 µM (inactive)	> 100 µM (inactive)	> 100 µM (inactive)	> 100 µM (inactive)	> 100 µM (inactive)	> 100 µM (inactive)	> 100 µM (inactive)	> 100 µM (inactive)	> 100 µM (inactive)	> 100 µM (inactive)
Cc1cccc2c1CC1(C2)Cc2c(C)cccc2C1=O (centres undefined)	23.8 µM (inactive)	21.3 µM (inactive)	15.6 µM (inactive)	16 µM (inactive)	26.1 µM (inactive)	23.6 µM (inactive)	29.9 µM (inactive)	25.2 µM (inactive)	27.2 µM (inactive)	24.8 µM (inactive)	26.8 µM (inactive)	22.7 µM (inactive)	17.8 µM (inactive)	30.6 µM (inactive)	42.9 µM (inactive)	26.7 µM (inactive)	16.9 µM (inactive)	18.2 µM (inactive)	23.2 µM (inactive)	29.9 µM (inactive)
COc1ccc(/C=C2\CC3C4CC=C5C[C@@H](N6CCCC6)CC[C@]5(C)C4CC[C@]3(C)[C@H]2O)cc1OC (some centres undefined)	3.77 µM (inactive)	8.17 µM (inactive)	8.38 µM (inactive)	8.79 µM (inactive)	5.52 µM (inactive)	5.48 µM (inactive)	4.13 µM (inactive)	6.56 µM (inactive)	7.55 µM (inactive)	6.7 µM (inactive)	10.5 µM (inactive)	9.16 µM (inactive)	8.22 µM (inactive)	7.67 µM (inactive)	10.6 µM (inactive)	10.4 µM (inactive)	7.43 µM (inactive)	7.26 µM (inactive)	10.2 µM (inactive)	15.8 µM (inactive)
Brc1ccc2[nH]cc(-c3nc(-c4c[nH]c5ccccc45)cs3)c2c1	2.86 µM (inactive)	3.79 µM (inactive)	1.22 µM (inactive)	2.46 µM (inactive)	2.3 µM (inactive)	4.58 µM (inactive)	1.85 µM (inactive)	2.09 µM (inactive)	2.8 µM (inactive)	3.88 µM (inactive)	2.59 µM (inactive)	2.06 µM (inactive)	1.91 µM (inactive)	6.03 µM (inactive)	4.27 µM (inactive)	3 µM (inactive)	2.82 µM (inactive)	1.6 µM (inactive)	3.49 µM (inactive)	3.16 µM (inactive)
COC(=O)[C@H](Cc1c[nH]c2ccccc12)NP(=O)(O)OC[C@H]1O[C@@H](n2cc(C)c(=O)[nH]c2=O)C[C@@H]1N=[N+]=[N-]	> 100 µM (inactive)	> 100 µM (inactive)	> 100 µM (inactive)	> 100 µM (inactive)	> 100 µM (inactive)	> 100 µM (inactive)	> 100 µM (inactive)	> 100 µM (inactive)	> 100 µM (inactive)	> 100 µM (inactive)	> 100 µM (inactive)	> 100 µM (inactive)	> 100 µM (inactive)	> 100 µM (inactive)	> 100 µM (inactive)	> 100 µM (inactive)	> 100 µM (inactive)	> 100 µM (inactive)	> 100 µM (inactive)	> 100 µM (inactive)
CCOC(=O)C(NC(=O)c1cccc(Cl)c1)(Nc1cccc(C)c1)C(F)(F)F (centres undefined)	23.3 µM (inactive)	11.6 µM (inactive)	20.1 µM (inactive)	18.7 µM (inactive)	16.7 µM (inactive)	17.7 µM (inactive)	13.3 µM (inactive)	13.6 µM (inactive)	19 µM (inactive)	19.6 µM (inactive)	14 µM (inactive)	20.8 µM (inactive)	5.26 µM (inactive)	21.8 µM (inactive)	21.2 µM (inactive)	15.3 µM (inactive)	16.3 µM (inactive)	16.1 µM (inactive)	21.2 µM (inactive)	16.4 µM (inactive)

Source: ChEMBL document CHEMBL1201862, “PubChem BioAssay data set” (2004)
